Earlier results on two molecules are cited in patent US8791105B2, “Methods for alleviating chronic pain and improving performance of cattle undergoing dehorning or castration” (Kansas State University Research Foundation, priority 2010, dated 2014).

The conditions of data set [1]: in vivo; cited from earlier work.
For data set [2] the following is noted: plasma; humans; cited from earlier work.

For the molecule `O=C(O)c1ccccc1O` [salicylate], the “plasma half-life previously reported” value in data set [1] was 30 min.

Take “1-(aminomethyl) cyclohexane acetic acid [gabapentin]”: the “reported minimum effective concentration” value in data set [2] is 2 µg/mL.
